Test results from paper PMC12767106, “In Situ Assembly of Transformable Monopeptide on Activated Neutrophils Attenuates NETs‐Induced Hepatocellular Carcinoma Metastasis by Disrupting NE Nuclear Translocation” (Advanced Science, 2025).

Experiments:
[1] = Particle diameter by DLS and TEM; type: physicochemical; settings: 20 µM NPs in H2O:DMSO 99:1, before interaction with NE
Excerpt: Submitted to Advanced Science
We obtained hepatocellular carcinoma (TCGA-LIHC) transcriptomic data from the Cancer Genome Atlas (TCGA) database (https://portal.gdc.cancer.gov/), quantified as transcripts per million (TPM). Tumor samples with complete clinical annotations (overall survival (OS), age, stage, etc.) were retained for further analysis.
Another HCC gene expression profile under the accession number E-TABM-36, containing 44 samples with available survival prognosis information, was obtained from the EBI Array database (https://www.ebi.ac.uk/arrayexpress/) as a validation set. […]
after being further diluted with DMSO (995, 795, 595, 395, 195, 95, 15, and 0 μL). To confirm the generation of NPs, measurements were made of the ultraviolet-visible (UV-vis) absorbance (UV-2600i, Japan) at approximately 410 nm and the fluorescence spectra (Cary 5000, Malaysia) at approximately 635 nm of solutions with different water contents. […]
temperature. […] In addition, the variation of fluorescence emission spectra of PpIX by […]
(§1) Pyrene molecules were employed as an indicator to determine the critical aggregation concentration (CAC) of nanoparticles by comparing the fluorescence of their third and first emissive peaks. […] The fluorescence spectra of pyrene (excitation, 335 nm) in different NPs dilutions were recorded. […]

[2] = Critical aggregation concentration, pyrene probe; type: physicochemical; settings: I3/I1 ratio, excitation 335 nm, 37 °C, 2 h, NPs 0.01-50 µM
Experimental: Submitted to Advanced Science temperature. Following the incubation, 10 µL of the solution was added to a copper mesh at 0 and 24 h. Filter paper was used to remove any extra droplets after an overnight stay. The samples were then stained for five minutes with uranyl acetate and then rinsed for one minute with water (10 µL). Finally, dried samples were observed by TEM (Talos 120C, Thermo Fisher Scientific, USA). DLS (Zetasizer Nano ZS, UK) was used to assess the solution for hydrodynamic size and zeta potential at 0 and 24 h following the incubation. Then, the nanofiber structure at 0 h and 24 h after incubation of FTP-NPs was examined with Circular Dichroism (CD) Spectra (Chirascan, UM, Britain). In addition, the variation of fluorescence emission spectra of PpIX by […]
transformation of FTP-NPs.
as §1, with “recorded. The fluorescence intensity ratio (I3/I1) of the third and first emissive peaks was measured for CAC calculation.” for “recorded.”

Substance | diameter [1] | critical aggregation concentration (CAC) [2] [µM]
PpIX-GFFVLK-EAIPMSIPPEVK [FTP-NPs] | 24.27±4.50 nm and ≈ 25 nm | 5.45
PpIX-GGGAAK-EAIPMSIPPEVK [NFTP-NPs, nanoparticles of the non-fibrillar transformable control peptide NFTP] | 26.13±3.23 nm | 3.75
